Source: ChEMBL document CHEMBL1201862, “PubChem BioAssay data set” (2004)
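96-well plates; 48 h exposure; 5 concentrations. Endpoints by linear interpolation between flanking doses. Not reached: highest tested concentration assigned. Abbreviation: GI50, concentration required for 50% inhibition of growth.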 Active and inactive are the calls of the source. Rule as the data show it: active = GI50 up to about 1.1 µM and inactive = higher.

Tests used:
Test in all cases: DTP human tumour cell line panel, 48 h
UACC-62 = test system: UACC-62
MDA-MB-435 = test system: MDA-MB-435
SF-295 = test system: SF-295
HL-60 = test system: HL-60
NCI-H226 = test system: NCI-H226
SNB-75 = test system: SNB-75
SR = test system: SR
HOP-92 = test system: HOP-92
CCRF-CEM = test system: CCRF-CEM
ACHN = test system: ACHN
TK-10 = test system: TK-10
HCC 2998 = test system: HCC 2998
IGROV-1 = test system: IGROV-1
SNB-19 = test system: SNB-19
A549 = test system: A549
EKVX = test system: EKVX
OVCAR-8 = test system: OVCAR-8
HCT-116 = test system: HCT-116
SK-MEL-5 = test system: SK-MEL-5
RPMI-8226 = test system: RPMI-8226

SMILES	GI50 (UACC-62)	GI50 (MDA-MB-435)	GI50 (SF-295)	GI50 (HL-60)	GI50 (NCI-H226)	GI50 (SNB-75)	GI50 (SR)	GI50 (HOP-92)	GI50 (CCRF-CEM)	GI50 (ACHN)	GI50 (TK-10)	GI50 (HCC 2998)	GI50 (IGROV-1)	GI50 (SNB-19)	GI50 (A549)	GI50 (EKVX)	GI50 (OVCAR-8)	GI50 (HCT-116)	GI50 (SK-MEL-5)	GI50 (RPMI-8226)
CC(C)OC(=O)c1ccc(NCC2=CC(=O)C=CC2=O)cc1Cl	13.2 µM (inactive)	9.44 µM (inactive)	17.8 µM (inactive)	0.904 µM (active)	25.7 µM (inactive)	15.8 µM (inactive)	1.58 µM (inactive)	4.89 µM (inactive)	0.448 µM (active)	4.36 µM (inactive)	15.7 µM (inactive)	15.2 µM (inactive)	11.5 µM (inactive)	6.11 µM (inactive)	31.9 µM (inactive)	15.4 µM (inactive)	5.68 µM (inactive)	19.3 µM (inactive)	18.7 µM (inactive)	–
NC1CC2C3CCC2C1C3=O (configuration not stated)	> 100 µM (inactive)	> 100 µM (inactive)	> 100 µM (inactive)	> 100 µM (inactive)	> 100 µM (inactive)	4.76 µM (inactive)	> 100 µM (inactive)	> 100 µM (inactive)	> 100 µM (inactive)	> 100 µM (inactive)	> 100 µM (inactive)	> 100 µM (inactive)	> 100 µM (inactive)	> 100 µM (inactive)	> 100 µM (inactive)	> 100 µM (inactive)	> 100 µM (inactive)	> 100 µM (inactive)	> 100 µM (inactive)	–
O=C1O[C@H]2[C@@H]3OC(=O)c4cc(O)c(O)c(O)c4-c4c(cc(O)c(O)c4O)C(=O)OC[C@H]2O[C@@H](OC(=O)c2cc(O)c(O)c(O)c2)[C@@H]3OC(=O)c2cc(O)c(O)c3c2[C@@H]2C1=CC(=O)C(O)(O)C2(O)O3 (some centres not stated)	30.1 µM (inactive)	16.7 µM (inactive)	31.6 µM (inactive)	20.7 µM (inactive)	23.2 µM (inactive)	24.6 µM (inactive)	29 µM (inactive)	27.7 µM (inactive)	27 µM (inactive)	31.5 µM (inactive)	–	21 µM (inactive)	52.8 µM (inactive)	76.9 µM (inactive)	25.9 µM (inactive)	16.1 µM (inactive)	19.5 µM (inactive)	16.9 µM (inactive)	25.5 µM (inactive)	38.3 µM (inactive)
CC1(C)CC[C@]2(C(=O)O)CC[C@]3(C)C(=CC[C@@H]4[C@@]5(C)CC[C@H](OC6OC(CO)C(O)C(O)C6OC6OC(CO)C(O)C(O)C6O)C(C)(C)[C@@H]5CC[C@]43C)[C@@H]2C1 (some centres not stated)	19.3 µM (inactive)	20 µM (inactive)	18.8 µM (inactive)	21.9 µM (inactive)	17.6 µM (inactive)	21.6 µM (inactive)	22.5 µM (inactive)	17.6 µM (inactive)	21.2 µM (inactive)	18.5 µM (inactive)	–	20.8 µM (inactive)	18.9 µM (inactive)	18.3 µM (inactive)	18.3 µM (inactive)	18.5 µM (inactive)	19.4 µM (inactive)	17.1 µM (inactive)	19 µM (inactive)	23.2 µM (inactive)
O=c1ccn(CC2(CO)CCCC2)c(=O)[nH]1	> 100 µM (inactive)	> 100 µM (inactive)	> 100 µM (inactive)	> 100 µM (inactive)	> 100 µM (inactive)	> 100 µM (inactive)	> 100 µM (inactive)	> 100 µM (inactive)	> 100 µM (inactive)	> 100 µM (inactive)	> 100 µM (inactive)	> 100 µM (inactive)	> 100 µM (inactive)	–	> 100 µM (inactive)	> 100 µM (inactive)	> 100 µM (inactive)	> 100 µM (inactive)	> 100 µM (inactive)	> 100 µM (inactive)
O=c1cc(/N=N/c2ccc(O)cc2)[nH]c(=O)[nH]1	60.7 µM (inactive)	> 100 µM (inactive)	> 100 µM (inactive)	> 100 µM (inactive)	> 100 µM (inactive)	26.6 µM (inactive)	> 100 µM (inactive)	96.6 µM (inactive)	–	> 100 µM (inactive)	99.3 µM (inactive)	29.7 µM (inactive)	> 100 µM (inactive)	> 100 µM (inactive)	> 100 µM (inactive)	> 100 µM (inactive)	> 100 µM (inactive)	> 100 µM (inactive)	> 100 µM (inactive)	> 100 µM (inactive)
C[C@H](CCC(=O)O)[C@H]1CC[C@H]2[C@@H]3[C@@H](O)C[C@@H]4C[C@H](O)CC[C@]4(C)[C@H]3CC[C@]12C [URSODIOL]	> 100 µM (inactive)	> 100 µM (inactive)	–	> 100 µM (inactive)	> 100 µM (inactive)	99.1 µM (inactive)	25.1 µM (inactive)	> 100 µM (inactive)	> 100 µM (inactive)	> 100 µM (inactive)	> 100 µM (inactive)	> 100 µM (inactive)	> 100 µM (inactive)	> 100 µM (inactive)	> 100 µM (inactive)	> 100 µM (inactive)	> 100 µM (inactive)	> 100 µM (inactive)	–	97.9 µM (inactive)
CCOC(=O)C(=O)/C(=C/N1C(=O)CC(=O)NC1=S)C(=O)OCC	> 100 µM (inactive)	> 100 µM (inactive)	> 100 µM (inactive)	> 100 µM (inactive)	> 100 µM (inactive)	10.3 µM (inactive)	> 100 µM (inactive)	9.29 µM (inactive)	> 100 µM (inactive)	> 100 µM (inactive)	–	> 100 µM (inactive)	> 100 µM (inactive)	> 100 µM (inactive)	> 100 µM (inactive)	> 100 µM (inactive)	> 100 µM (inactive)	> 100 µM (inactive)	> 100 µM (inactive)	> 100 µM (inactive)
C=C1NC(=O)C(CC(C(=O)C(=O)Nc2c(C)cccc2C(C)(C)C)C(=O)c2ccc3ccccc3c2)C(=O)N1 (configuration not stated)	> 100 µM (inactive)	> 100 µM (inactive)	> 100 µM (inactive)	> 100 µM (inactive)	> 100 µM (inactive)	> 100 µM (inactive)	> 100 µM (inactive)	> 100 µM (inactive)	> 100 µM (inactive)	> 100 µM (inactive)	–	> 100 µM (inactive)	–	> 100 µM (inactive)	> 100 µM (inactive)	–	> 100 µM (inactive)	> 100 µM (inactive)	> 100 µM (inactive)	> 100 µM (inactive)
CCOC(=O)N1c2c(c3ccccc3n2C(=O)OCC)C(=O)C(OC)N1C(=O)OCC (configuration not stated)	40.1 µM (inactive)	32.1 µM (inactive)	19.6 µM (inactive)	17.2 µM (inactive)	36.1 µM (inactive)	–	16.9 µM (inactive)	31.3 µM (inactive)	19.5 µM (inactive)	25.6 µM (inactive)	50.5 µM (inactive)	33.3 µM (inactive)	26.5 µM (inactive)	41.4 µM (inactive)	32.7 µM (inactive)	22 µM (inactive)	21.7 µM (inactive)	26.5 µM (inactive)	21.8 µM (inactive)	23.9 µM (inactive)
